# Entries after “also recorded” stand apart in the source; their conditions may differ.
# Experiments:
# Format in all cases: cell-based, mouse
# murine VSMC migration = assay: VSMC migration, modified Boyden chamber; details: leptin 6 nM
# Description: Migration of VSMCs: Migration was measured using a modified Boyden chamber as previously described (Grinspoon S, et al., J Clin Endocrinol Metab, 1996, 81(11):3861-3). The lower chambers contained PDGF (10 ng/mL), insulin (200 nmol/L), or 0.2% BSA (negative control) in DMEM. 2×10^5 cells were loaded into the top chamber. After 6 h, non-migrating cells were scraped from the upper surface of the filter, and the lower surface of the filter was stained with HEMA 3 Stain Set (Fisher Diagnostics, Middletown, Va.). The number of migrated VSMCs was determined by counting 4 fields at 200× magnification, of constant area per well. Values are expressed as the percentage of cells migrating in response to a chemo-attractant after subtracting the negative control. Experiments were performed thrice in triplicate wells.
# FIG. 5 is a graph that depicts inhibition of migration of VSMCs toward insulin by rapamycin. […]
# (§1) Primary VSMC were isolated from aortic explants of WT, ob/ob, or db/db mice (46). VSMC proliferation was determined using the Cell Titre Aqueous One Solution Proliferation Assay (Promega, Madison, Wis.). Migration to PDGF-BB was assessed in a modified Boyden chamber assay (47).
# [1] = system: primary murine aortic vascular smooth muscle cells (VSMC); assay: VSMC proliferation assay (Coulter counter / MTS-based)
# Description: The methods used in the above experiments were as follows: Cell Culture and VSMC Proliferation Assays. Primary VSMC were isolated from aortic explants of wildtype, ob/ob, or db/db mice in the method of Roque et al. 30. VSMC were routinely cultured in Dulbecco's Modified Eagle's Medium (DMEM) containing either 4500 or 1250 mg/L glucose supplemented with 20% FBS at 37° C. in a 5% CO2 incubator. […] Cells were plated at 200,000 cells/ well of a 6 well dish and subsequently serum starved for 72 hr in DMEM media supplemented with 0.1 % FBS. Leptin dissolved in PBS was added directly to serum-free media at concentrations of 1, 10, or 100 ng/ml with […] LY294002 or U0126, and cells were grown for another 72 hr before harvesting. VSMC proliferation was measured by counting samples using a Coulter counter or using the Cell Titre 96 Aqueous One Solution Cell Proliferation Assay kit (Promega). Cell viability was assessed by Trypan Blue staining.
# Proliferation of VSMCs: VSMC proliferation was measured by counting triplicate samples using a Coulter counter or using the CellTitier 96 Aqueous One Solution Cell Proliferation Assay (Promega, Madison, Wis.) kit per manufacturer's instructions. Cell viability was assessed via staining with Trypan Blue.
# Murine VSMCs (2×10^4 cells/well) were incubated in a 6-well tissue culture plate for 72 hours in DMEM containing 0.1% FBS with or without insulin (10 or 100 nmol/L) and with 0, 1, 10, or 100 nmol/L rapamycin. Triplicate samples were counted using a Coulter counter and were normalized as percentage of the control group. Cell viability was checked via Trypan blue staining.
# Murine VSMCs, seeded 2×10^4 cells/well in a 6-well plate, were starved for 72 hrs in DMEM with 0.1% FBS. Rapamycin, leptin, or insulin in different concentrations indicated in the figure were incubated with VSMCs in DMEM with 0.1% of FBS for 72 hrs. Triplicate samples were counted via a Coulter counter. Cell viability was checked via Trypan blue staining. […] In panel C, VSMCs were exposed to U0126, a specific MEK1/2 inhibitor, or LY294002, a specific PI3K inhibitor.
# as §1
# [2] = system: p70S6K and 4E-BP1 phosphorylation (mTOR substrates); assay: Immunoblot of p70S6K and 4E-BP1 phosphorylation in VSMC
# Description: Western blot analysis: The cells were plated in a 100-mm culture dish in DMEM supplemented with 20% FBS for 24 h at 37° C., followed by serum starvation for 48 h. Cells were then treated with different reagents for 30 min. Cells were subsequently lysed on ice for 30 min in RIPA buffer [150 mM NaCl, 100 mM Tris (pH 8.0), 1% Triton X-100, 1% deoxycholic acid, 0.1% SDS, 5 mM EDTA, and 10 mM NaF] supplemented with 1 mM sodium vanadate, 2 mM leupeptin, 2 mM aprotinin, 1 mM phenylmethylsulfonyl fluoride (PMSF), 1 mM DTT, and 2 mM pepstatin A. After centrifugation at 14,000 rpm for 30 min, the supernatant was harvested as the total cellular protein extract, and stored at −70° C. The protein concentration was determined using Bio-Rad protein assay reagent (Richmond, Calif.). The total cellular protein extracts were separated by SDS-polyacrylamide gel electrophoresis (SDS-PAGE) and transferred to nitrocellulose membrane in 20 mM Tris-HCl (pH 8.0) containing 150 mM glycine and 20% (v/v) methanol.
# Blots were washed three times in PBS buffer, followed by incubation with the appropriate HRP-linked IgG. The specific proteins in the blots were visualized using an enhanced chemiluminescence reagent (NEN, Boston, Mass.).
# Starved murine VSMCs were incubated for 20 min with leptin (100 ng/ml) or 10% FBS, in the absence or presence of rapamycin (100 nmol/L).
# VSMC were plated on 100-mm dishes, serum starved for 72 h in DMEM containing 0.1% FBS, and stimulated with 0.6 or 6 nM (10 or 100 ng/ml) leptin. Extracts were prepared by brief sonication in HKM buffer [40 mM HEPES-KOH (pH 7.6), 7.5 mM MgCl2, 0.5 mM DTT] or, in the case of Akt phosphorylation studies, by lysing cells on ice for 30 min in RIPA buffer. 70 μg of protein per sample were subjected to immunoblotting by standards protocols. Imaging and densitometry were performed on an Odyssey infrared system (Li-Cor, Lincoln, Neb.).
substance,measurement,setting,value
"Leptin: recombinant leptin; hormone derived from adipose tissue, encoded by the Ob gene",PDGF-induced migration of VSMC,murine VSMC migration; WT VSMC,enhanced
same,PDGF-induced migration of VSMC,murine VSMC migration; db/db VSMC,not
same,VSMC proliferation,"[1]; Example 2, high (4500 mg/L) and normal (1250 mg/L) glucose, various leptin concentrations",potentiated the proliferation of VSMCs in a dose-dependent manner
same,VSMC proliferation,[1]; co-incubation of leptin 100 ng/ml with insulin 10 nmol/L,~80%
same,VSMC proliferation,"[1]; leptin receptor-defective (db/db) VSMC, leptin 1, 10, 100 ng/ml",not
same,VSMC proliferation,"[1]; leptin-deficient (ob/ob) VSMC, leptin 1, 10, 100 ng/ml",induced dose-dependent VSMC proliferation; also recorded: can induce VSMC proliferation; also recorded: increased
same,VSMC proliferation,"[1]; wild type C57BL/6J VSMC, leptin 1, 10, 100 ng/ml (0.06, 0.6, 6 nM), 72 h, vs vehicle",increased murine VSMC proliferation in a dose-dependent fashion
same,VSMC proliferation,"[1]; wild type C57BL/6J VSMC, leptin 1, 10, 100 ng/ml (0.06, 0.6, 6 nM), 72 h, vs vehicle, listed as leptin",increased
same,phosphorylation of S6K and 4EBP-1,"[2]; Example 1, leptin 10 ng/mL, data not shown",stimulated the phosphorylation
same,phosphorylation of p70S6K and 4E-BP1,"[2]; Example 2, leptin 100 ng/ml",up-phosphorylated
same,S6K phosphorylation,"[2]; Example 5, leptin 0.6 nM, data not shown","stimulated S6K phosphorylation, albeit less robustly"
same,phosphorylation of S6K,"[2]; Example 5, leptin 6 nM",stimulated the phosphorylation
